Source: PubChem BioAssay (NCI)
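A five-concentration, 48-hour dose response in 96-well plates underlies each endpoint, interpolated linearly between surrounding concentrations. TGI denotes the concentration required for complete inhibition of growth.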

Key:
Test in all cases: NCI-60 cell line screen, 48 h
KM12 colon = system: KM12 colon
EKVX NSCLC = system: EKVX NSCLC
HCT-116 colon = system: HCT-116 colon
RXF 393 renal = system: RXF 393 renal
U251 CNS = system: U251 CNS
MDA-N = system: MDA-N
PC-3 prostate = system: PC-3 prostate
UO-31 renal = system: UO-31 renal
SNB-19 CNS = system: SNB-19 CNS
HT29 colon = system: HT29 colon
SW-620 colon = system: SW-620 colon
SF-295 CNS = system: SF-295 CNS
A498 renal = system: A498 renal
T-47D breast = system: T-47D breast
SF-539 CNS = system: SF-539 CNS
CAKI-1 renal = system: CAKI-1 renal
OVCAR-3 ovarian = system: OVCAR-3 ovarian
HS 578T breast = system: HS 578T breast
MDA-MB-435 = system: MDA-MB-435
A549 NSCLC = system: A549 NSCLC
K-562 leukemia = system: K-562 leukemia
SF-268 CNS = system: SF-268 CNS
MDA-MB-231 breast = system: MDA-MB-231 breast
CCRF-CEM leukemia = system: CCRF-CEM leukemia
NCI-H460 lung = system: NCI-H460 lung
SN12C renal = system: SN12C renal
HCT-15 colon = system: HCT-15 colon
OVCAR-8 ovarian = system: OVCAR-8 ovarian
SK-MEL-5 melanoma = system: SK-MEL-5 melanoma
MCF7 breast = system: MCF7 breast
BT-549 breast = system: BT-549 breast
TK-10 renal = system: TK-10 renal
HOP-62 NSCLC = system: HOP-62 NSCLC
DU-145 prostate = system: DU-145 prostate
SNB-75 CNS = system: SNB-75 CNS
RPMI-8226 leukemia = system: RPMI-8226 leukemia
UACC-62 melanoma = system: UACC-62 melanoma
NCI/ADR-RES ovarian = system: NCI/ADR-RES ovarian
786-0 renal = system: 786-0 renal
ACHN renal = system: ACHN renal
NCI-H226 lung = system: NCI-H226 lung
SK-MEL-2 melanoma = system: SK-MEL-2 melanoma
MOLT-4 leukemia = system: MOLT-4 leukemia
SK-MEL-28 melanoma = system: SK-MEL-28 melanoma
HL-60(TB) leukemia = system: HL-60(TB) leukemia
SR leukemia = system: SR leukemia
M14 melanoma = system: M14 melanoma
NCI-H23 lung = system: NCI-H23 lung
IGROV1 ovarian = system: IGROV1 ovarian
UACC-257 melanoma = system: UACC-257 melanoma
OVCAR-5 ovarian = system: OVCAR-5 ovarian
COLO 205 colon = system: COLO 205 colon
HCC-2998 colon = system: HCC-2998 colon
SK-OV-3 ovarian = system: SK-OV-3 ovarian
MALME-3M melanoma = system: MALME-3M melanoma
NCI-H522 lung = system: NCI-H522 lung
OVCAR-4 ovarian = system: OVCAR-4 ovarian
HOP-92 NSCLC = system: HOP-92 NSCLC
LOX IMVI melanoma = system: LOX IMVI melanoma

What does the source list for `C=CCSc1nn(CC=C)cc2ncnc1-2`?
TGI (KM12 colon): > 100 µM; TGI (EKVX NSCLC): > 100 µM; TGI (HCT-116 colon): > 100 µM; TGI (RXF 393 renal): > 100 µM; TGI (U251 CNS): > 100 µM; TGI (MDA-N): > 100 µM; TGI (PC-3 prostate): > 100 µM; TGI (UO-31 renal): > 100 µM; TGI (SNB-19 CNS): > 100 µM; TGI (HT29 colon): > 100 µM; TGI (SW-620 colon): > 100 µM; TGI (SF-295 CNS): > 100 µM; TGI (A498 renal): > 100 µM; TGI (T-47D breast): > 100 µM; TGI (SF-539 CNS): > 100 µM; TGI (CAKI-1 renal): > 100 µM; TGI (OVCAR-3 ovarian): > 100 µM; TGI (HS 578T breast): > 100 µM; TGI (MDA-MB-435): > 100 µM; TGI (A549 NSCLC): > 100 µM; TGI (K-562 leukemia): > 100 µM; TGI (SF-268 CNS): > 100 µM; TGI (MDA-MB-231 breast): > 100 µM; TGI (CCRF-CEM leukemia): > 100 µM; TGI (NCI-H460 lung): > 100 µM; TGI (SN12C renal): > 100 µM; TGI (HCT-15 colon): > 100 µM; TGI (OVCAR-8 ovarian): > 100 µM; TGI (SK-MEL-5 melanoma): > 100 µM; TGI (MCF7 breast): > 100 µM; TGI (BT-549 breast): > 100 µM; TGI (TK-10 renal): > 100 µM; TGI (HOP-62 NSCLC): > 100 µM; TGI (DU-145 prostate): > 100 µM; TGI (SNB-75 CNS): > 100 µM; TGI (RPMI-8226 leukemia): > 100 µM; TGI (UACC-62 melanoma): > 100 µM; TGI (NCI/ADR-RES ovarian): > 100 µM; TGI (786-0 renal): > 100 µM; TGI (ACHN renal): > 100 µM; TGI (NCI-H226 lung): > 100 µM; TGI (SK-MEL-2 melanoma): > 100 µM; TGI (MOLT-4 leukemia): > 100 µM; TGI (SK-MEL-28 melanoma): > 100 µM; TGI (HL-60(TB) leukemia): > 100 µM; TGI (SR leukemia): > 100 µM; TGI (M14 melanoma): > 100 µM; TGI (NCI-H23 lung): > 100 µM; TGI (IGROV1 ovarian): > 100 µM; TGI (UACC-257 melanoma): > 100 µM; TGI (OVCAR-5 ovarian): > 100 µM; TGI (COLO 205 colon): > 100 µM

How did the TGI (KM12 colon) turn out when `c1ccc(-c2cc(-c3cc(-c4ccccn4)[nH]n3)n[nH]2)nc1` was run?
Its TGI is > 100 µM.

And the TGI (EKVX NSCLC)?
The TGI was > 100 µM.

What about the TGI (HCT-116 colon) of the same compound?
Its TGI is > 100 µM.

What about the TGI (RXF 393 renal) of the same compound?
Its TGI is > 100 µM.

And the TGI (HCC-2998 colon)?
Its TGI is 83.6 µM.

And the TGI (U251 CNS)?
The TGI was > 100 µM.

What about the TGI (MDA-N) of the same compound?
Its TGI is > 100 µM.

What about the TGI (PC-3 prostate) of the same compound?
Its TGI is > 100 µM.

And the TGI (UO-31 renal)?
Its TGI is 73.2 µM.

And the TGI (SK-OV-3 ovarian)?
Its TGI is > 100 µM.

What about the TGI (SNB-19 CNS) of the same compound?
The TGI was > 100 µM.

What about the TGI (HT29 colon) of the same compound?
Its TGI is > 100 µM.

And the TGI (SW-620 colon)?
Its TGI is > 100 µM.

And the TGI (SF-295 CNS)?
Its TGI is > 100 µM.

And the TGI (A498 renal)?
Its TGI is > 100 µM.

And the TGI (T-47D breast)?
The TGI was > 100 µM.

And the TGI (SF-539 CNS)?
Its TGI is > 100 µM.

What about the TGI (CAKI-1 renal) of the same compound?
Its TGI is > 100 µM.

And the TGI (OVCAR-3 ovarian)?
Its TGI is > 100 µM.

And the TGI (HS 578T breast)?
The TGI was > 100 µM.

And the TGI (MDA-MB-435)?
Its TGI is > 100 µM.

And the TGI (A549 NSCLC)?
The TGI was > 100 µM.

And the TGI (K-562 leukemia)?
Its TGI is > 100 µM.

What about the TGI (SF-268 CNS) of the same compound?
Its TGI is > 100 µM.

And the TGI (MDA-MB-231 breast)?
Its TGI is > 100 µM.

And the TGI (MALME-3M melanoma)?
Its TGI is > 100 µM.

What about the TGI (NCI-H460 lung) of the same compound?
The TGI was > 100 µM.

What about the TGI (NCI-H522 lung) of the same compound?
The TGI was > 100 µM.

What about the TGI (SN12C renal) of the same compound?
The TGI was > 100 µM.

What about the TGI (HCT-15 colon) of the same compound?
The TGI was > 100 µM.

And the TGI (OVCAR-8 ovarian)?
Its TGI is > 100 µM.

What about the TGI (SK-MEL-5 melanoma) of the same compound?
Its TGI is > 100 µM.

What about the TGI (MCF7 breast) of the same compound?
Its TGI is > 100 µM.

And the TGI (BT-549 breast)?
The TGI was > 100 µM.

What about the TGI (HOP-62 NSCLC) of the same compound?
The TGI was > 100 µM.

And the TGI (DU-145 prostate)?
The TGI was > 100 µM.

What about the TGI (SNB-75 CNS) of the same compound?
The TGI was > 100 µM.

And the TGI (RPMI-8226 leukemia)?
The TGI was > 100 µM.

What about the TGI (UACC-62 melanoma) of the same compound?
Its TGI is > 100 µM.

And the TGI (NCI/ADR-RES ovarian)?
The TGI was > 100 µM.

And the TGI (786-0 renal)?
The TGI was > 100 µM.

And the TGI (OVCAR-4 ovarian)?
Its TGI is > 100 µM.

What about the TGI (ACHN renal) of the same compound?
Its TGI is > 100 µM.

And the TGI (NCI-H226 lung)?
The TGI was > 100 µM.

What about the TGI (SK-MEL-2 melanoma) of the same compound?
Its TGI is > 100 µM.

What about the TGI (MOLT-4 leukemia) of the same compound?
Its TGI is > 100 µM.

And the TGI (SK-MEL-28 melanoma)?
The TGI was > 100 µM.

And the TGI (HL-60(TB) leukemia)?
Its TGI is > 100 µM.

And the TGI (HOP-92 NSCLC)?
The TGI was > 100 µM.

And the TGI (SR leukemia)?
The TGI was 80.6 µM.

And the TGI (M14 melanoma)?
Its TGI is > 100 µM.

What about the TGI (NCI-H23 lung) of the same compound?
The TGI was > 100 µM.

What about the TGI (LOX IMVI melanoma) of the same compound?
The TGI was > 100 µM.

And the TGI (IGROV1 ovarian)?
Its TGI is > 100 µM.

What about the TGI (UACC-257 melanoma) of the same compound?
Its TGI is > 100 µM.

And the TGI (OVCAR-5 ovarian)?
Its TGI is > 100 µM.

And the TGI (COLO 205 colon)?
The TGI was > 100 µM.
